In ChEMBL document CHEMBL5325414, “Novel neuroprotective pyromeconic acid derivatives with concurrent anti-Aβ deposition, anti-inflammatory, and anti-oxidation properties for treatment of Alzheimer's disease” (Eur J Med Chem, 2023):
Active and inactive are the calls of the source. The rule behind the calls is not given here.

Assays:
[1] = Antioxidant activity by measuring oxygen radical absorbance capacity-fluorescein values; type: functional
[2] = molecular target: T1, Amyloid-beta precursor protein (Homo sapiens, UniProt P05067); test: Inhibition of amyloid beta (1 to 42) (unknown origin) self aggregation
T1 sequence (P05067 whole entry): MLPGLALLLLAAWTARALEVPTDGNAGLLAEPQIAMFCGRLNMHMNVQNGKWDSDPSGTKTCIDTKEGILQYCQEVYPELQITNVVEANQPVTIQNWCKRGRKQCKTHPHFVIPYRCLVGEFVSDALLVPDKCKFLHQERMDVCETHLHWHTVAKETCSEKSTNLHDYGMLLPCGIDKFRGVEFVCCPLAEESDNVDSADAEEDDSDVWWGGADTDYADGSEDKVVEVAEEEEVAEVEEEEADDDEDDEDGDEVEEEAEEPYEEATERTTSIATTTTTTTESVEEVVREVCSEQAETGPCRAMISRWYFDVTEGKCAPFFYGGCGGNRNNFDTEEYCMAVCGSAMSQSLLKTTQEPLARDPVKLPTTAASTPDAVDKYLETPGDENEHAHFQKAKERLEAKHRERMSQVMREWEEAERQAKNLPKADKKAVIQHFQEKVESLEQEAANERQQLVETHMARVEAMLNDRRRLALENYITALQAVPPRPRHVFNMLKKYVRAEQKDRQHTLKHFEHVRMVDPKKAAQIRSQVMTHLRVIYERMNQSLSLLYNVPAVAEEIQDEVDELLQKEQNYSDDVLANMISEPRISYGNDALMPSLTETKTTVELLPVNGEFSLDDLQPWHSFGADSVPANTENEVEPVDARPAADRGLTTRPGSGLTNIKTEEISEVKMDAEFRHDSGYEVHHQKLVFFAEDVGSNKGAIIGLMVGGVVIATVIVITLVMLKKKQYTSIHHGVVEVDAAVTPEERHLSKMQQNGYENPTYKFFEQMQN

[3] = Metal chelating activity assessed as compound-Na+ complex formation by optical shift at 50 uM in PBS buffer 7.4 by UV-vis spectrometric analysis
[4] = molecular target: T1, Amyloid-beta precursor protein; test: Inhibition of Cu2+ induced amyloid beta (1 to 42) (unknown origin) aggregation assessed as depolymerization at 50 uM for 24 hrs by TEM analysis
[5] = test system: BV-2; test: Effect of amyloid beta (1 to 42) indued apoptosis in mouse BV-2 cells assessed as necrotic cells at 2.5 uM measured by propidium iodide staining based flow cytometric analysis (reference value: 5.72%); type: functional
[6] = test system: BV-2; test: Effect of amyloid beta (1 to 42) indued apoptosis in mouse BV-2 cells assessed as viable cells at 5 uM measured by propidium iodide staining based flow cytometric analysis (reference value: 61.29%); type: functional; conditions: read-out: Activity
[7] = test system: BV-2; test: Effect of amyloid beta (1 to 42) indued apoptosis in mouse BV-2 cells assessed as necrotic cells at 5 uM measured by propidium iodide staining based flow cytometric analysis (reference value: 5.72%); type: functional
[8] = test system: BV-2; test: Effect of amyloid beta (1 to 42) indued apoptosis in mouse BV-2 cells assessed as early apoptotic cells at 10 uM measured by propidium iodide staining based flow cytometric analysis (reference value: 26.12%); type: functional
[9] = test system: BV-2; test: Effect of amyloid beta (1 to 42) indued apoptosis in mouse BV-2 cells assessed as late apoptotic cells at 10 uM measured by propidium iodide staining based flow cytometric analysis (reference value: 6.88%); type: functional
[10] = test system: BV-2; test: Effect of amyloid beta (1 to 42) indued apoptosis in mouse BV-2 cells assessed as necrotic cells at 10 uM measured by propidium iodide staining based flow cytometric analysis (reference value: 5.72%); type: functional
[11] = AUC(0 to t) in Sprague-Dawley rat at 15 mg/kg, IG; type: ADME, organism-based; parameters: dose 15 mg/kg, route ig; conditions: in vivo, po
[12] = Clearance in Sprague-Dawley rat at 15 mg/kg, IG; type: ADME, organism-based; conditions: in vivo, po
[13] = Drug concentration in plasma of Sprague-Dawley rat at 15 mg/kg, IG measured after 0.25 hrs; type: ADME, organism-based; conditions: po
[14] = Drug concentration in plasma of Sprague-Dawley rat at 15 mg/kg, IG measured after 2 hrs; type: ADME, organism-based; conditions: po
[15] = Ratio of drug concentration in hippocampus to plasma of Sprague-Dawley rat at 15 mg/kg, IG measured after 4 hrs; type: ADME, organism-based; conditions: po
[16] = Acute toxicity in mouse assessed as change in body weight at 2000 mg/kg, IG administered as single dose measured after 14 days; type: organism-based; conditions: in vivo, po, 336 h, time 14 day
[17] = test system: Mus musculus; test: Anti alzheimer activity in scopolamine induced anxiety in ICR mouse assessed as decrease in chaotic behaviour pretreated with scopolamine at 3 mg/kg, ip for 31 days followed by compound addition at 20 mg/kg, po at day 7 to 31 by morris water maze test; type: functional, organism-based; conditions: time 25.0 day
[18] = test system: Mus musculus; test: Neuroprotective effect in scopolamine induced cognitively impaired mouse assessed as recovery of decreased Nissl bodies in CA1 region at hippocampus at 20 mg/kg by Nissl staining analysis; type: functional, organism-based
[19] = test system: Mus musculus; test: Neuroprotective effect in scopolamine induced cognitively impaired mouse assessed as decrease in neuronal damage in CA1 region at hippocampus at 20 mg/kg by immunofluorescence staining analysis; type: functional, organism-based
[20] = test system: Mus musculus; test: Antioxidant activity in scopolamine induced cognitive impaired mouse assessed as increase of GSH level in cortex at 20 mg/kg; type: functional, organism-based
[21] = test system: Mus musculus; test: In vivo effect on HO-1 expression in scopolamine induced cognitive impaired mouse assessed as reversal of NRF2 signalling in hippocampus treated at 20 mg/kg by immunofluorescence analysis; type: functional, organism-based
[22] = test system: Mus musculus; test: In vivo effect on NRF2 expression in scopolamine induced cognitive impaired mouse assessed as reversal of NRF2 signalling in hippocampus treated at 20 mg/kg by immunoblot analysis; type: functional, organism-based
[23] = test system: Mus musculus; test: In vivo antiinflammatory activity in scopolamine induced cognitive impaired ICR mouse assessed as decrease in GFAP levels in hippocampus by immunoblot analysis; type: functional, organism-based

In the case of O=c1ccoc(/C=C/c2ccc(O)c(O)c2)c1O, the Activity index [1] is reported as 2.65, the IC50 [2] is reported as 11.1 µM and the Activity [3] is reported as “inactive”. The inhibition [4] was “Active”, the Activity [5] was 0.16% and the viability at 5 µM [6] was 77.4%. The Activity [7] was 0.84%, the Activity [8] was 22.1% and the Activity [9] was 6.82%. It also gave an Activity [10] of 7.98%, an AUC(0-t) [11] of 24.4 ng·h/mL and a CL/F [12] of 481 L/h/kg. The concentration at 0.25 h [13] was 5.32 ng/mL, the concentration at 2 h [14] was 0.99 ng/mL and the Kp at 4 h [15] was 5.62. For the same molecule, the Activity [16] was “Non-Toxic”, the Activity [17] was “Active” and the Activity [18] was “Active”. For the same molecule, the Activity [19] was “Active”, the Activity [20] was “Active” and the Activity [21] was “Active”. The Activity [22] was “Active” and the Activity [23] was “Active”.
